According to publication PMC3848474, “Different effects of progesterone and estradiol on chimeric and wild type aldosterone synthase in vitro” (Reproductive Biology and Endocrinology : RB&E, 2013):

Biological target: T1, wild type aldosterone synthase (ASWT, CYP11B2) (Homo sapiens, UniProt P19099)
T1 construct: full ASWT cDNA
T1 sequence (P19099 25-503): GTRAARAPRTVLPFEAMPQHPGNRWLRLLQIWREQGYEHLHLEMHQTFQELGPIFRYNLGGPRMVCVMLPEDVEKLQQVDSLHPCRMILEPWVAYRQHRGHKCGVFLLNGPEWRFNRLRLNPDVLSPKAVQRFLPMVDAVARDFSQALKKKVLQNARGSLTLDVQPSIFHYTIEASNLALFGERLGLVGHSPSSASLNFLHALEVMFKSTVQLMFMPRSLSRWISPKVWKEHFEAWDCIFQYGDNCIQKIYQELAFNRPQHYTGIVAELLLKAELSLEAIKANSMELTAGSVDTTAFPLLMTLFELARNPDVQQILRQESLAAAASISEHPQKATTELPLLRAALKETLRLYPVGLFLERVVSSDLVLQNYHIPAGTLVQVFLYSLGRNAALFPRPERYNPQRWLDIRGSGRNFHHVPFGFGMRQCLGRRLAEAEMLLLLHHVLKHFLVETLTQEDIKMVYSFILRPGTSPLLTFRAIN
Assay: aldosterone production from DOC in CYP11B2-transfected HEK-293 cells, HPLC-MS/MS; Km/Vmax shift
Assay type: cell-based

**Q.** For `CC(=O)[C@H]1CC[C@H]2[C@@H]3CCC4=CC(=O)CC[C@]4(C)[C@H]3CC[C@]12C` [progesterone], which IC50 is on record?
**A.** 2.24 µM
